According to the NIST ThermoML archive (doi:10.1021/je7002918):
± gives the expanded uncertainty stated by the source.

Test: xn = mol fraction of the nth substance listed
Conditions: 298.15 K, 101 kPa, Liquid

SMILES: CC(C)(C)Cl [2-chloro-2-methylpropane] + Cc1ccc(C)cc1
- excess molar volume (x1 = 0.0816): -1.02e-07 ± 1e-08 m3/mol
- excess molar volume (x1 = 0.1212): -1.48e-07 ± 1e-08 m3/mol
- excess molar volume (x1 = 0.1874): -2.12e-07 ± 1e-08 m3/mol
- excess molar volume (x1 = 0.2585): -2.68e-07 ± 1.1e-08 m3/mol
- excess molar volume (x1 = 0.308): -3.04e-07 ± 1.1e-08 m3/mol
- excess molar volume (x1 = 0.3746): -3.32e-07 ± 1.2e-08 m3/mol
- excess molar volume (x1 = 0.4539): -3.56e-07 ± 1.2e-08 m3/mol
- excess molar volume (x1 = 0.5117): -3.57e-07 ± 1.2e-08 m3/mol
- excess molar volume (x1 = 0.5918): -3.44e-07 ± 1.2e-08 m3/mol
- excess molar volume (x1 = 0.6635): -3.18e-07 ± 1.1e-08 m3/mol
- excess molar volume (x1 = 0.7516): -2.62e-07 ± 1.1e-08 m3/mol
- excess molar volume (x1 = 0.8683): -1.56e-07 ± 1e-08 m3/mol
- excess molar volume (x1 = 0.9321): -8.2e-08 ± 1e-08 m3/mol

SMILES: CC(C)(C)Cl [2-chloro-2-methylpropane] + Cc1cccc(C)c1
- excess molar volume (x1 = 0.0875): -8.4e-08 ± 1e-08 m3/mol
- excess molar volume (x1 = 0.1216): -1.16e-07 ± 1e-08 m3/mol
- excess molar volume (x1 = 0.1973): -1.76e-07 ± 1e-08 m3/mol
- excess molar volume (x1 = 0.2724): -2.22e-07 ± 1e-08 m3/mol
- excess molar volume (x1 = 0.3516): -2.58e-07 ± 1.1e-08 m3/mol
- excess molar volume (x1 = 0.4307): -2.84e-07 ± 1.1e-08 m3/mol
- excess molar volume (x1 = 0.4832): -2.9e-07 ± 1.1e-08 m3/mol
- excess molar volume (x1 = 0.5214): -2.94e-07 ± 1.1e-08 m3/mol
- excess molar volume (x1 = 0.5768): -2.86e-07 ± 1.1e-08 m3/mol
- excess molar volume (x1 = 0.658): -2.66e-07 ± 1.1e-08 m3/mol
- excess molar volume (x1 = 0.7305): -2.38e-07 ± 1e-08 m3/mol
- excess molar volume (x1 = 0.8543): -1.52e-07 ± 1e-08 m3/mol
- excess molar volume (x1 = 0.9112): -9.8e-08 ± 1e-08 m3/mol

SMILES: CCC(C)Cl (stereo unspecified) [2-chlorobutane] + Cc1ccc(C)cc1
- excess molar volume (x1 = 0.0881): -6.5e-08 ± 1e-08 m3/mol
- excess molar volume (x1 = 0.163): -1.26e-07 ± 1e-08 m3/mol
- excess molar volume (x1 = 0.3481): -2.26e-07 ± 1e-08 m3/mol
- excess molar volume (x1 = 0.4012): -2.48e-07 ± 1e-08 m3/mol
- excess molar volume (x1 = 0.4742): -2.54e-07 ± 1.1e-08 m3/mol
- excess molar volume (x1 = 0.5001): -2.58e-07 ± 1.1e-08 m3/mol
- excess molar volume (x1 = 0.5534): -2.52e-07 ± 1.1e-08 m3/mol
- excess molar volume (x1 = 0.6264): -2.34e-07 ± 1e-08 m3/mol
- excess molar volume (x1 = 0.6784): -2.06e-07 ± 1e-08 m3/mol
- excess molar volume (x1 = 0.738): -1.75e-07 ± 1e-08 m3/mol
- excess molar volume (x1 = 0.7871): -1.46e-07 ± 1e-08 m3/mol
- excess molar volume (x1 = 0.8758): -8.6e-08 ± 1e-08 m3/mol
- excess molar volume (x1 = 0.9179): -5.2e-08 ± 9e-09 m3/mol

SMILES: CCC(C)Cl (stereo unspecified) [2-chlorobutane] + Cc1ccccc1C
- excess molar volume (x1 = 0.0784): -6.6e-08 ± 1e-08 m3/mol
- excess molar volume (x1 = 0.121): -1.12e-07 ± 1e-08 m3/mol
- excess molar volume (x1 = 0.1509): -1.34e-07 ± 1e-08 m3/mol
- excess molar volume (x1 = 0.166): -1.47e-07 ± 1e-08 m3/mol
- excess molar volume (x1 = 0.2243): -2.01e-07 ± 1e-08 m3/mol
- excess molar volume (x1 = 0.314): -2.62e-07 ± 1.1e-08 m3/mol
- excess molar volume (x1 = 0.3921): -2.92e-07 ± 1.1e-08 m3/mol
- excess molar volume (x1 = 0.4879): -3.1e-07 ± 1.1e-08 m3/mol
- excess molar volume (x1 = 0.5552): -2.95e-07 ± 1.1e-08 m3/mol
- excess molar volume (x1 = 0.669): -2.46e-07 ± 1e-08 m3/mol
- excess molar volume (x1 = 0.7282): -2.12e-07 ± 1e-08 m3/mol
- excess molar volume (x1 = 0.8091): -1.42e-07 ± 1e-08 m3/mol
- excess molar volume (x1 = 0.8816): -8.6e-08 ± 1e-08 m3/mol
- excess molar volume (x1 = 0.9052): -6.4e-08 ± 1e-08 m3/mol

SMILES: CC(C)(C)Cl [2-chloro-2-methylpropane] + c1ccccc1
- excess molar volume (x1 = 0.0821): -9.4e-08 ± 1e-08 m3/mol
- excess molar volume (x1 = 0.1115): -1.22e-07 ± 1e-08 m3/mol
- excess molar volume (x1 = 0.2016): -1.8e-07 ± 1e-08 m3/mol
- excess molar volume (x1 = 0.2989): -2.31e-07 ± 1e-08 m3/mol
- excess molar volume (x1 = 0.314): -2.4e-07 ± 1e-08 m3/mol
- excess molar volume (x1 = 0.3587): -2.46e-07 ± 1e-08 m3/mol
- excess molar volume (x1 = 0.3959): -2.52e-07 ± 1.1e-08 m3/mol
- excess molar volume (x1 = 0.446): -2.58e-07 ± 1.1e-08 m3/mol
- excess molar volume (x1 = 0.5551): -2.45e-07 ± 1e-08 m3/mol
- excess molar volume (x1 = 0.6721): -2.06e-07 ± 1e-08 m3/mol
- excess molar volume (x1 = 0.7422): -1.74e-07 ± 1e-08 m3/mol
- excess molar volume (x1 = 0.828): -1.28e-07 ± 1e-08 m3/mol
- excess molar volume (x1 = 0.914): -6.6e-08 ± 1e-08 m3/mol

SMILES: CCC(C)Cl (stereo unspecified) [2-chlorobutane] + Cc1ccccc1
- excess molar volume (x1 = 0.0856): -6.6e-08 ± 1e-08 m3/mol
- excess molar volume (x1 = 0.1276): -9.6e-08 ± 1e-08 m3/mol
- excess molar volume (x1 = 0.2495): -1.73e-07 ± 1e-08 m3/mol
- excess molar volume (x1 = 0.3441): -2.12e-07 ± 1e-08 m3/mol
- excess molar volume (x1 = 0.4723): -2.32e-07 ± 1e-08 m3/mol
- excess molar volume (x1 = 0.5018): -2.34e-07 ± 1e-08 m3/mol
- excess molar volume (x1 = 0.5569): -2.32e-07 ± 1e-08 m3/mol
- excess molar volume (x1 = 0.6025): -2.21e-07 ± 1e-08 m3/mol
- excess molar volume (x1 = 0.6712): -2.06e-07 ± 1e-08 m3/mol
- excess molar volume (x1 = 0.7991): -1.46e-07 ± 1e-08 m3/mol
- excess molar volume (x1 = 0.9046): -7.2e-08 ± 1e-08 m3/mol
- excess molar volume (x1 = 0.9432): -4.4e-08 ± 9e-09 m3/mol

SMILES: CCC(C)Cl (stereo unspecified) [2-chlorobutane] + c1ccccc1
- excess molar volume (x1 = 0.0696): 1e-09 ± 9e-09 m3/mol
- excess molar volume (x1 = 0.084): 2e-09 ± 9e-09 m3/mol
- excess molar volume (x1 = 0.1122): 1e-09 ± 9e-09 m3/mol
- excess molar volume (x1 = 0.1524): 2e-09 ± 9e-09 m3/mol
- excess molar volume (x1 = 0.1983): -2e-09 ± 9e-09 m3/mol
- excess molar volume (x1 = 0.2184): -5e-09 ± 9e-09 m3/mol
- excess molar volume (x1 = 0.2744): -5e-09 ± 9e-09 m3/mol
- excess molar volume (x1 = 0.3652): -1.8e-08 ± 9e-09 m3/mol
- excess molar volume (x1 = 0.4665): -2.6e-08 ± 9e-09 m3/mol
- excess molar volume (x1 = 0.5692): -4.4e-08 ± 9e-09 m3/mol
- excess molar volume (x1 = 0.6062): -4.8e-08 ± 9e-09 m3/mol
- excess molar volume (x1 = 0.752): -5.4e-08 ± 9e-09 m3/mol
- excess molar volume (x1 = 0.8041): -4.6e-08 ± 9e-09 m3/mol
- excess molar volume (x1 = 0.8573): -4e-08 ± 9e-09 m3/mol
- excess molar volume (x1 = 0.9032): -3.5e-08 ± 9e-09 m3/mol
- excess molar volume (x1 = 0.9405): -2.5e-08 ± 9e-09 m3/mol

SMILES: CCC(C)Cl (stereo unspecified) [2-chlorobutane] + Cc1cccc(C)c1
- excess molar volume (x1 = 0.0694): -5.4e-08 ± 9e-09 m3/mol
- excess molar volume (x1 = 0.1004): -7.8e-08 ± 1e-08 m3/mol
- excess molar volume (x1 = 0.139): -9.4e-08 ± 1e-08 m3/mol
- excess molar volume (x1 = 0.2117): -1.22e-07 ± 1e-08 m3/mol
- excess molar volume (x1 = 0.2712): -1.43e-07 ± 1e-08 m3/mol
- excess molar volume (x1 = 0.3438): -1.5e-07 ± 1e-08 m3/mol
- excess molar volume (x1 = 0.4061): -1.56e-07 ± 1e-08 m3/mol
- excess molar volume (x1 = 0.4884): -1.62e-07 ± 1e-08 m3/mol
- excess molar volume (x1 = 0.5442): -1.62e-07 ± 1e-08 m3/mol
- excess molar volume (x1 = 0.601): -1.56e-07 ± 1e-08 m3/mol
- excess molar volume (x1 = 0.7408): -1.34e-07 ± 1e-08 m3/mol
- excess molar volume (x1 = 0.8431): -1.06e-07 ± 1e-08 m3/mol
- excess molar volume (x1 = 0.9249): -6.2e-08 ± 1e-08 m3/mol

SMILES: CC(C)(C)Cl [2-chloro-2-methylpropane] + Cc1ccccc1C
- excess molar volume (x1 = 0.0698): -1.32e-07 ± 1e-08 m3/mol
- excess molar volume (x1 = 0.1023): -1.86e-07 ± 1e-08 m3/mol
- excess molar volume (x1 = 0.1642): -2.64e-07 ± 1.1e-08 m3/mol
- excess molar volume (x1 = 0.209): -3.06e-07 ± 1.1e-08 m3/mol
- excess molar volume (x1 = 0.2653): -3.54e-07 ± 1.2e-08 m3/mol
- excess molar volume (x1 = 0.3321): -3.88e-07 ± 1.2e-08 m3/mol
- excess molar volume (x1 = 0.4187): -4.22e-07 ± 1.3e-08 m3/mol
- excess molar volume (x1 = 0.4979): -4.32e-07 ± 1.3e-08 m3/mol
- excess molar volume (x1 = 0.5984): -4.28e-07 ± 1.3e-08 m3/mol
- excess molar volume (x1 = 0.6627): -4.16e-07 ± 1.3e-08 m3/mol
- excess molar volume (x1 = 0.7452): -3.72e-07 ± 1.2e-08 m3/mol
- excess molar volume (x1 = 0.8056): -3.22e-07 ± 1.1e-08 m3/mol
- excess molar volume (x1 = 0.9113): -1.88e-07 ± 1e-08 m3/mol
- excess molar volume (x1 = 0.9453): -1.24e-07 ± 1e-08 m3/mol

SMILES: CC(C)(C)Cl [2-chloro-2-methylpropane] + Cc1ccccc1
- excess molar volume (x1 = 0.0932): -1.14e-07 ± 1e-08 m3/mol
- excess molar volume (x1 = 0.1243): -1.48e-07 ± 1e-08 m3/mol
- excess molar volume (x1 = 0.1832): -2.11e-07 ± 1e-08 m3/mol
- excess molar volume (x1 = 0.2556): -2.75e-07 ± 1.1e-08 m3/mol
- excess molar volume (x1 = 0.3342): -3.28e-07 ± 1.1e-08 m3/mol
- excess molar volume (x1 = 0.3895): -3.54e-07 ± 1.2e-08 m3/mol
- excess molar volume (x1 = 0.428): -3.68e-07 ± 1.2e-08 m3/mol
- excess molar volume (x1 = 0.4952): -3.81e-07 ± 1.2e-08 m3/mol
- excess molar volume (x1 = 0.5467): -3.76e-07 ± 1.2e-08 m3/mol
- excess molar volume (x1 = 0.5985): -3.64e-07 ± 1.2e-08 m3/mol
- excess molar volume (x1 = 0.6356): -3.53e-07 ± 1.2e-08 m3/mol
- excess molar volume (x1 = 0.6889): -3.2e-07 ± 1.1e-08 m3/mol
- excess molar volume (x1 = 0.8102): -2.26e-07 ± 1e-08 m3/mol
- excess molar volume (x1 = 0.8961): -1.3e-07 ± 1e-08 m3/mol
- excess molar volume (x1 = 0.9405): -7.4e-08 ± 1e-08 m3/mol
